This is an account of results in patent US8030354B2, “Substituted biphenyl GPR40 modulators” (Amgen Inc., priority 2007, dated 2011).

Some results are limits rather than exact numbers.

The term EC50 denotes the concentration that produces a half-maximal response. A high value points to a less potent agent.

GPR40, sequence (O14842 whole entry): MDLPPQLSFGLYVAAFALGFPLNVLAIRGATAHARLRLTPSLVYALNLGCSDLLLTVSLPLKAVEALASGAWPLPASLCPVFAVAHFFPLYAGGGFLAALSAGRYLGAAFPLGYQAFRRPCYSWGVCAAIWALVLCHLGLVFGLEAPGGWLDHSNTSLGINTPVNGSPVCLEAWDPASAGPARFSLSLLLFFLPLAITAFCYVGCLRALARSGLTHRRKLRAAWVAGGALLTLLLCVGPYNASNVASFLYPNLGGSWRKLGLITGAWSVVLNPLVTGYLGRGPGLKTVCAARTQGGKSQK

The test addresses GPR40 (Homo sapiens, UniProt O14842). Kind of test: Cell-based aequorin assay (CHO cells stably expressing GPR40 and aequorin). On the set-up: expressed in transfected cells; host or cells: CHO cells stably transfected with GPR40 and aequorin. The conditions noted are these: activation of human GPR40, CHO cells, 0.01% HSA. How it is done: Briefly, the Aequorin assays were performed on doubly stable CHO cells expressing GPR40 and Aequorin DNA. […] The luminescence was recorded over a period of 20 seconds with a Microlumat luminometer (Berthold). […] The inositol phosphate assay was performed on an A9 cell line stably transfected with GPR40 (A9_GPR40). The cells were incubated with different concentrations of compounds and [^3H] inositol accumulation was measured after 1 hour.
Cell-based aequorin assays were employed to characterize the modulatory activity of compounds on the GPR40 signaling pathway. In an exemplary assay, CHO cells were stably transfected with both GPR40 and Aequorin (Euroscreen). Cells were detached from the tissue culture dish with 2 mL of trypsin (0.25%(w/v)). Trypsinization was halted with 28 mL of Hanks Buffered Salt Solution containing 20 mM Hepes (H/HBSS) and 0.01% fatty acid-free human serum albumin (HSA). Coelantrazine is added to 1 ug/mL, and the cells were incubated for 2 hours at room temperature. Compounds were dissolved in DMSO for preparation of 10 mM stock solutions. Compounds were diluted in H/HBSS containing 0.01% HSA. Serial dilutions of the test compounds were prepared to determine dose response.
Aequorin luminescence measurements were made using an EG&G Berthold 96-well luminometer, and the response was measured over a 20 second interval after cells and compounds were mixed. The maximum relative light units was plotted to determine dose response. The EC50 (effective concentration to reach 50% maximal response) was determined from the dose response plot.
The compound `CSc1cccc(-c2ccc(COc3cccc([C@H](C)CC(=O)O)c3)cc2C(C)(C)C)c1` (single isomer, unassigned) [Example 3, (3R)-3-(3-(((2-(1,1-Dimethylethyl)-3′-(methylsulfanyl)-1,1′-biphenyl-4-yl)methyl)oxy)phenyl)butanoic acid or (3S)-3-(3-(((2-(1,1-dimethylethyl)-3′-(methylsulfanyl)-1,1′-biphenyl-4-yl)methyl)oxy)phenyl)butanoic acid] yielded a concentration giving a half-maximal response (EC50) of 1 to 10 µM.
Under `COc1ccc(F)c(-c2ccc(COc3cccc([C@H](CC(=O)O)C4CC4)c3)cc2C(C)(C)C)c1` (single isomer, unassigned) [Example 10, (3R)-3-Cyclopropyl-3-(3-(((2-(1,1-dimethylethyl)-2′-fluoro-5′-(methyloxy)-1,1′-biphenyl-4-yl)methyl)oxy)phenyl)propanoic acid or (3S)-3-cyclopropyl-3-(3-(((2-(1,1-dimethylethyl)-2′-fluoro-5′-(methyloxy)-1,1′-biphenyl-4-yl)methyl)oxy)phenyl)propanoic acid] stands 1 to 10 µM; under `CCCCOc1cc(COc2cccc([C@H](CC(=O)O)C3CC3)c2)ccc1-c1cc(OC)ccc1F` (single isomer, unassigned) [Example 11, (3R)-3-(3-(((2-(Butyloxy)-2′-fluoro-5′-(methyloxy)-1,1′-biphenyl-4-yl)methyl)oxy)phenyl)-3-cyclopropylpropanoic acid or (3S)-3-(3-(((2-(butyloxy)-2′-fluoro-5′-(methyloxy)-1,1′-biphenyl-4-yl)methyl)oxy)phenyl)-3-cyclopropylpropanoic acid], 1 to 10 µM; under `C=C[C@H](CC(=O)O)c1cccc(OCc2ccc(-c3cc(OC)ccc3F)c(C(C)(C)C)c2)c1` (single isomer, unassigned) [Example 15, (3S)-3-(3-(((2-(1,1-Dimethylethyl)-2′-fluoro-5′-(methyloxy)-1,1′-biphenyl-4-yl)methyl)oxy)phenyl)-4-pentenoic acid or (3R)-3-(3-(((2-(1,1-dimethylethyl)-2′-fluoro-5′-(methyloxy)-1,1′-biphenyl-4-yl)methyl)oxy)phenyl)-4-pentenoic acid], 1 to 10 µM.
Under `C=C[C@H](CC(=O)O)c1cccc(OCc2ccc(-c3cc(OC)ccc3F)c(OCCCC)c2)c1` (single isomer, unassigned) [Example 16, (3S)-3-(3-(((2-(Butyloxy)-2′-fluoro-5′-(methyloxy)-1,1′-biphenyl-4-yl)methyl)oxy)phenyl)-4-pentenoic acid or (3R)-3-(3-(((2-(butyloxy)-2′-fluoro-5′-(methyloxy)-1,1′-biphenyl-4-yl)methyl)oxy)phenyl)-4-pentenoic acid] stands 1 to 10 µM.
Under `C=CC(CC(=O)O)c1cccc(OCc2ccc(-c3cc(OC)ccc3F)c(C(C)(C)C)c2)c1` (single isomer, unassigned) [Example 19, (3R)-3-(3-(((2-(1,1-Dimethylethyl)-2′-fluoro-5′-(methyloxy)-1,1′-biphenyl-4-yl)methyl)oxy)phenyl)-4-pentenoic acid or (3S)-3-(3-(((2-(1,1-dimethylethyl)-2′-fluoro-5′-(methyloxy)-1,1′-biphenyl-4-yl)methyl)oxy)phenyl)-4-pentenoic acid] stands 1 to 10 µM; under `CCCCOc1cc(COc2cccc([C@H](C)CC(=O)O)c2)ccc1-c1ccc(OC)cc1` (single isomer, unassigned) [Example 21, (3R)-3-(3-(((2-(Butyloxy)-4′-(methyloxy)-1,1′-biphenyl-4-yl)methyl)oxy)phenyl)butanoic acid or (3S)-3-(3-(((2-(butyloxy)-4′-(methyloxy)-1,1′-biphenyl-4-yl)methyl)oxy)phenyl)butanoic acid], 1 to 10 µM; under `CCCCOc1cc(COc2cccc([C@H](C)CC(=O)O)c2)ccc1-c1cccc(OCC)c1` (single isomer, unassigned) [Example 22, (3R)-3-(3-(((2-(Butyloxy)-3′-(ethyloxy)-1,1′-biphenyl-4-yl)methyl)oxy)phenyl)butanoic acid or (3S)-3-(3-(((2-(butyloxy)-3′-(ethyloxy)-1,1′-biphenyl-4-yl)methyl)oxy)phenyl)butanoic acid], 1 to 10 µM.
For the compound `CCCCOc1cc(COc2cccc([C@H](C)CC(=O)O)c2)ccc1-c1cc(OCC)ccc1F` (single isomer, unassigned) [Example 23, (3R)-3-(3-(((2-(Butyloxy)-5′-(ethyloxy)-2′-fluoro-1,1′-biphenyl-4-yl)methyl)oxy)phenyl)butanoic acid or (3S)-3-(3-(((2-(butyloxy)-5′-(ethyloxy)-2′-fluoro-1,1′-biphenyl-4-yl)methyl)oxy)phenyl)butanoic acid], the EC50 lay in the range of 1 to 10 µM.
`CCCCOc1cc(COc2cccc([C@H](C)CC(=O)O)c2)ccc1-c1ccccc1F` (single isomer, unassigned) [Example 24, (3R)-3-(3-(((2-(Butyloxy)-2′-fluoro-1,1′-biphenyl-4-yl)methyl)oxy)phenyl)butanoic acid or (3S)-3-(3-(((2-(butyloxy)-2′-fluoro-1,1′-biphenyl-4-yl)methyl)oxy)phenyl)butanoic acid]: the 50% effective concentration (EC50) was in the range of 1 to 10 µM.
Turning to `CCCCOc1cc(COc2cccc([C@H](C)CC(=O)O)c2)ccc1-c1ccccc1OC` (single isomer, unassigned) [Example 25, (3R)-3-(3-(((2-(Butyloxy)-2′-(methyloxy)-1,1′-biphenyl-4-yl)methyl)oxy)phenyl)butanoic acid or (3S)-3-(3-(((2-(butyloxy)-2′-(methyloxy)-1,1′-biphenyl-4-yl)methyl)oxy)phenyl)butanoic acid], the EC50 is above 10 µM.
Under `COc1ccc(F)c(-c2ccc(COc3cccc([C@H](C)CC(=O)O)c3)cc2OC2CCCCO2)c1` (single isomer, unassigned) [Example 26, (3R)-3-(3-(((2′-Fluoro-5′-(methyloxy)-2-(tetrahydro-2H-pyran-2-yloxy)-1,1′-biphenyl-4-yl)methyl)oxy)phenyl)butanoic acid or (3S)-3-(3-(((2′-fluoro-5′-(methyloxy)-2-(tetrahydro-2H-pyran-2-yloxy)-1,1′-biphenyl-4-yl)methyl)oxy)phenyl)butanoic acid] stands 0.1 to 1 µM; under `CCCOc1cc(COc2cccc([C@H](C)CC(=O)O)c2)ccc1-c1cc(OC)ccc1F` (single isomer, unassigned) [Example 27, (3R)-3-(3-(((2′-Fluoro-5′-(methyloxy)-2-(propyloxy)-1,1′-biphenyl-4-yl)methyl)oxy)phenyl)butanoic acid or (3S)-3-(3-(((2′-fluoro-5′-(methyloxy)-2-(propyloxy)-1,1′-biphenyl-4-yl)methyl)oxy)phenyl)butanoic acid], 1 to 10 µM.
`CCCCCOc1cc(COc2cccc([C@H](C)CC(=O)O)c2)ccc1-c1cc(OC)ccc1F` (single isomer, unassigned) [Example 28, (3R)-3-(3-(((2′-Fluoro-5′-(methyloxy)-2-(pentyloxy)-1,1′-biphenyl-4-yl)methyl)oxy)phenyl)butanoic acid or (3S)-3-(3-(((2′-fluoro-5′-(methyloxy)-2-(pentyloxy)-1,1′-biphenyl-4-yl)methyl)oxy)phenyl)butanoic acid] registered a 50% effective concentration (EC50) of 0.1 to 1 µM.
